From patent US11872261B2, “Lipoprotein targeting protease inhibitors and uses” (The United States of America, as represented by the …, priority 2016, dated 2024)

System: lipoprotein proteome (LDL, HDL-L, HDL-S)
Assay: Lipoprotein proteomics, spectral counting of LDL, HDL-L and HDL-S pools
Format: in vivo, human
Conditions: 28 days vs baseline
Procedure: Collected plasma from each subject at baseline (n=10) and after 28 days of rosuvastatin treatment (n=10) was applied to two Superdex 200 columns (GE Healthcare) arranged in series on an Akta FPLC system. The flow rate was set to 0.5 mL/min and 0.5 mL fractions were collected. Fractions were assayed for phosphatidylcholine, total cholesterol, free cholesterol and triglyceride by enzymatic assays (Wako Diagnostics) to determine position of elution for lipoproteins. For each subject, fractions were combined to make LDL (elution vol. 17.5-20 mL), HDL-large (HDL-L; elution vol. 21-23 mL) and HDL-small (HDL-S; elution vol. 23-25 mL) pools, generating a total of 60 samples for MS analysis.
Pooled FPLC fractions were applied to a phospholipid binding resin and washed to isolate lipid bound protein components, as previously described (Gordon et al., J Proteome Res 9: 5239-5249, 2010). Resin bound proteins were then subjected to overnight trypsin digestion at 37° C. Resulting peptides were collected and then reduced with dithiothreitol (200 mM; 30 min at 37° C.) and carbamidomethylated with iodoacetamide (800 mM; 30 min at 25° C.). Digest solutions were dried, reconstituted in 100 μL of water+0.1% formic acid and desalted using ZipTips (Millipore), and stored at −20° C. until MS analysis.
Desalted samples were dried and reconstituted in 20 μL of water+0.1% formic acid and 10 μL was analyzed on a Thermo Orbitrap Velos Mass Spectrometer instrument. Blank runs were performed between each sample to prevent carry over. Peak lists were generated using Proteome Discoverer (version 1.3.0.339) and resulting spectra were searched against the SwissProt database (version 012214), using Mascot (version 2.4.0) to identify protein components of the lipoprotein fractions (fragment ion mass tolerance of 0.80 Da and a parent ion tolerance of 20 PPM). Search criteria included: human taxonomy, fixed modification: carbamidomethylation (C), variable modifications: oxidation (M), deamidation (N, Q) and up to two missed trypsin cleavage sites were allowed. Validation of peptide and protein identifications was performed using Scaffold software (version 4.1.1) and a 1.0% false discovery rate (FDR) for both peptide and protein thresholds and a minimum of 2 identified peptides were required per protein. Calculated decoy FDR for peptide and protein identifications were 0.03% and 0.7%, respectively. Spectral counting was used as a semi-quantitative comparison of protein abundance between baseline and on-treatment samples using normalized spectrum count calculated by the Scaffold software. Comparisons were only performed to estimate the relative abundance of the same protein in the same lipoprotein pool before and after rosuvastatin treatment; no comparisons were made between lipoprotein fractions. Data was analyzed by student's T-test to identify proteins with statistically significant (p<0.05) changes in normalized spectral counts. Because this MS analysis was intended primarily for screening purposes, to identify candidates for hypothesis driven functional experiments, the data analysis was not corrected for multiple comparisons. All MS data have been deposited to the ProteomeXchange Consortium (Vizcaino et al., Nat Biotechnol 32: 223-226, 2014) via the PRIDE partner repository with the dataset identifier PXD002633.
To test our hypothesis that rosuvastatin alters the lipoprotein proteome, we pooled fractions containing LDL and HDL and used mass spectrometry (MS) to analyze the lipid associated protein content of each of these lipoproteins in each subject at baseline and after 28 days on rosuvastatin. The HDL peak was divided into two halves, representing large and small HDL, to gain additional insight given the proteomic complexity of HDL. […]

CC(C)c1nc(N(C)S(C)(=O)=O)nc(-c2ccc(F)cc2)c1/C=C/[C@@H](O)C[C@@H](O)CC(=O)O [rosuvastatin] was tested, and the “change in Ig kappa chain V-II spectral counts” value (LDL fraction) was “+68%”, the “change in complement C3 spectral counts” value (LDL fraction) was “+71%” and the “magnitude of reductions in protein spectral counts, LDL fraction” value (LDL fraction) was −20 to −71%. The “change in Ig lambda like polypeptide 5 spectral counts” value (large HDL) was −12%, the “change in N-acetylmuramoyl-L-alanine amidase spectral counts” value (large HDL) was −69% and the “change in alpha-1-antitrypsin (A1AT) spectral counts” value (large HDL) was “+2438%”. For the same compound, the “change in ceruloplasmin spectral counts” value (large HDL) was “+27%”, the “change in clusterin spectral counts” value (large HDL) was −13% and the “change in kallikrein spectral counts” value (large HDL) was −26%. For the same compound, the “increase in A1AT spectral counts associated with large HDL” value (large HDL) was 24 fold, the “change in alpha-1-antichymotrypsin spectral counts” value (small HDL fraction) was −89% and the “change in apolipoprotein C-III spectral counts” value (small HDL fraction) was −13%. The “change in complement C2 spectral counts” value (small HDL fraction) was −44% and the “change in vitronectin spectral counts” value (small HDL fraction) was “+23%”.
